Where a name gives a salt, the structure may show the parent alone.
Tests used:
[1] = system: CUTO-3F lung adenocarcinoma cells harboring MPRIP-NTRK1 fusion; test: Cell proliferation assay (Cell Titer 96 MTS), CUTO-3F; format: cell-based; conditions: Homo sapiens, 72 h, read-out: IC50, cell proliferation
Protocol: (§3) The KM12 cell line is a colorectal cancer cell line harboring the TPM3-NTRK1 fusion (Vaishnavi et al., Nature Med. 19:1469-1472, 2013). The MO-91 cell line is derived from an acute myeloid leukemia patient harboring the ETV6-NTRK3 fusion (Taipale et al., Nature Biotech. 31:630-637, 2013).
(§4) All proliferation assays were performed in media supplemented with 5% FBS as previously described using Cell Titer 96 MTS (Promega) (Bouhana et al., EORTC-NCI-AACR 26th Symposium on Molecular Targets and Cancer Therapeutics, Barcelona, Spain 2014). Cells were seeded 500-2000 cells/well and treated for 72 hours at the drug concentrations described on each graph. Each assay was performed in triplicate in at least 3 independent biological replicates. Data were plotted and IC50 values calculated using GraphPad software.

[2] = system: KM12 colorectal cancer cells harboring TPM3-NTRK1 fusion; test: Cell proliferation assay (Cell Titer 96 MTS), KM12; format: cell-based; conditions: Homo sapiens, KM12, 72 h, read-out: IC50, cell proliferation
Protocol: as §3, §4

[3] = system: MO-91 acute myeloid leukemia cells harboring ETV6-NTRK3 fusion; test: Cell proliferation assay (Cell Titer 96 MTS), MO-91; format: cell-based; conditions: Homo sapiens, MO-91, 72 h, read-out: IC50, cell proliferation
Protocol: as §3, §4

[4] = system: MPRIP-TRKA oncoprotein and ERK1/2; test: Immunoblot of phosphorylation in CUTO-3F cells; format: cell-based, human; conditions: low doses, 2 hours
Text: (§1) Briefly, cells were lysed in RIPA buffer with Halt Protease and Phosphatase Inhibitor Cocktail (Thermo Scientific) and diluted in loading buffer (LI-COR Biosciences). The membranes were scanned and analyzed using the Odyssey Imaging System and software (LI-COR). The following antibodies were used from Cell Signaling: pTRK Y490 (rabbit polyclonal, #9141), pERK1/2 XP T202/Y204 (#9101), total ERK1/2, pAKT S473 (rabbit mAb, #4060), and total AKT mouse clone D3A7 (#2920). TRK (C-14) rabbit polyclonal antibody was purchased from Santa Cruz Biotechnology. GAPDH (MAB374) and pTYR (4G10) are from Millipore.

[5] = system: TPM3-TRKA, pAKT, and pERK1/2; test: Immunoblot of phosphorylation in KM12 cells; format: cell-based, human; conditions: low doses, 2 hours
Text: as §1

[6] = system: TEL-TRKC oncoprotein, pAKT, and pERK1/2; test: Immunoblot of phosphorylation in MO-91 cells; format: cell-based, human; conditions: low doses, 2 hours
Text: as §1

[7] = system: TRKA-SHC1 complexes; test: TRK-SHC1 proximity ligation assay in CUTO-3 cells; format: cell-based, human; conditions: 100 nM, 2 hours, vs DMSO
Protocol: Cells were seeded onto glass coverslips (in a 48 well plate) or chamber slides at 25-75 k cells/well. Cells were treated with the indicated doses and times then fixed for 15 minutes by shaking at room temperature in 4% paraformaldehyde. The cells were rinsed twice in PBS, and then the Duolink® in situ PLA® kit from SigmaAldrich in mouse/rabbit (Red) was used according to the manufacturer's protocol (catalog # DUO92101). The antibody concentrations were optimized using immunofluorescence prior to PLA experiments. The FFPE tissue PLAs from mice or patients were prepared as described in histology. Additionally, samples were treated with 300 mM glycine for 15 minutes prior to the blocking step, otherwise the assay was performed according to the manufacturer's protocol. The cells were mounted using Prolong® gold anti-fade reagent (with DAPI) and cured overnight prior to imaging. […] The following antibodies were used: TRK (C17F1) and ALK (D5F3) from Cell Signaling, SHC1 from Novus, and Grb2 (610111) from BD.

[8] = system: undifferentiated sarcoma with LMNA-NTRK1 fusion; test: Phase 1 trial, patient with undifferentiated sarcoma (case report); format: in vivo, human; conditions: one patient
Text: The patient started cycle 1 day 1 three days later. The patient was seen weekly for pharmacokinetic and safety analysis.

[9] = Phase 1 dose escalation study, pharmacokinetics; format: in vivo, human; conditions: oral, patients
[10] = system: TRKA/B/C; test: Target inhibition judged from unbound drug levels in Phase 1 study; format: in vivo, human; conditions: all dose levels
[11] = system: solid tumors with NTRK gene fusions; test: Phase 1 study, tumor response (RECIST 1.1) in patients with NTRK fusions; format: in vivo, human
Protocol: Three of the 23 patients harbored NTRK-fusions and were treated at either 100 or 150 mg BID.

[12] = system: xenograph (human) tumor derived from CUTO-3F cell line; test: Xenograft tumor growth in mice, CUTO-3F; format: in vivo; conditions: CUTO-3F xenograft, 60 or 200 mg/kg daily oral
Text: (§2) The three different cancer cell lines, the CUTO-3F cell line, the KM12 cell line, and the MO-91 cell line, each express a different Trk gene fusion. […] Following implantation of one of these three different xenograph (human) tumors in mice, the change in the volume of each tumor was monitored.

[13] = system: xenograph (human) tumor derived from KM12 cell line; test: Xenograft tumor growth in mice, KM12; format: in vivo; conditions: 60 or 200 mg/kg daily oral
Text: as §2

[14] = system: xenograph (human) tumor derived from MO-91 cell line; test: Xenograft tumor growth in mice, MO-91; format: in vivo; conditions: MO-91 xenograft, 60 or 200 mg/kg daily oral
Text: as §2

[15] = Dynamic vapor sorption (DVS-1 system); format: physicochemical
Protocol: For the DVS measurement a sample of crystalline form (I-HS) was cycled through changing humidity conditions to determine its hygroscopicity. The sample was analyzed using a Surface Measurement System DVS-1 Dynamic Vapor Sorption System. […] Data was collected in 1 minute intervals. Nitrogen was used as the carrier gas. […] After completion of the sorption cycle, the sample was dried using the same procedure, but all the way down to 0% RH and finally taken back to the starting point of 20% RH. The weight change during the sorption/desorption cycles were plotted, allowing for the hygroscopic nature of the sample to be determined.

[16] = Stability on aluminum slide at 40° Celsius/75% RH; format: physicochemical; conditions: I-HS 10 days; HCl after 1 hour; HBr after 2 weeks; mesylate overnight
[17] = Dynamic vapor sorption / humidity exposure (IGAsorp, 25° C.); format: physicochemical; conditions: for hygroscopicity: DVS, hydrogen sulfate
Protocol: • 1. The hygroscopicity was studied at 25° C. using an IGAsorp analyzer. • 2. About 15 mg of sample was placed in a tared mesh sample holder at an initial ambient room humidity setting of ˜35%. • 3. A total wet/dry nitrogen flow rate of 250 cc/min is used throughout the study. • 4. […] The maximum time allowed at any one humidity set point was 120 min. The sample was maintained under dry N2 after the cycle was completed. Percent weight gain was calculated based on the dry weight basis.

[18] = Accelerated stability, open vials in LDPE bag, 40° C./75% RH, five weeks; format: physicochemical
Protocol: Upon removal from the chamber, the samples were physically characterized by appearance, KF, TGA, DSC, XRD and PLM. The samples were also analyzed by HPLC for chromatographic purity, chiral integrity and potency. Where applicable, the data presented in the stability portion also includes the original T=0 data for comparison purposes. The data can be seen in Tables 25-29 and FIGS. 40-44.

[19] = system: HCC78 cells expressing SLC34A2-ROS1 fusion protein; conditions: HCC78 cell line
Protocol: as §4

[20] = Phase 1 dose escalation study, safety; conditions: for dose limiting toxicity: one patient
Protocol: In patients with measurable disease, efficacy is assessed per RECIST 1.1 criteria.
Response is measured by RECIST Criteria, version 1.1. Serum is collected for pharmacokinetic analysis on Cycle 1 Day 1 and Day 8. Safety information is collected on all patients and the definition of dose-limiting toxicity applies to adverse events regardless of relationship to investigational product.

[21] = 23 patients, 50 mg QD-150 mg BID

Structure (SMILES): O=C(Nc1cnn2ccc(N3CCC[C@@H]3c3cc(F)ccc3F)nc12)N1CC[C@H](O)C1 [crystalline form (I-HS), (S)—N-(5-((R)-2-(2,5-difluorophenyl)-pyrrolidin-1-yl)-pyrazolo[1,5-a]pyrimidin-3-yl)-3-hydroxypyrrolidine-1-carboxamide hydrogen sulfate]
- IC50 [1]: < 100 nM
- IC50 [2]: < 10 nM
- IC50 [3]: < 10 nM
- phosphorylation of MPRIP-TRKA and ERK1/2 [4]: inhibition of phosphorylation
- phosphorylation of TPM3-TRKA, pAKT, pERK1/2 [5]: inhibition of the phorphorylation
- phosphorylation of TEL-TRKC, pAKT, pERK1/2 [6]: inhibition in the phosphorylation
- TRKA-SHC1 complexes (PLA signal) [7]: disruption of TRKA-SHC1 complexes
- response by RECIST 1.1 ([8]; 100 mg twice daily, CT before cycle 2 and cycle 3): partial response
- oxygen saturation on room air ([8]; on treatment, baseline 90% with 5 L supplemental oxygen): 97%
- CA125 tumor marker levels ([8]; over cycle 1): normalized
- exposure versus dose [9]: increased in approximate proportion with dose
- time to maximum plasma concentrations following dosing [9]: 30 to 60 min
- inhibition of TRKA/B/C at peak concentrations [10]: approximately 98%
- response (RECIST 1.1) in three NTRK-fusion patients ([11]; 100 or 150 mg BID): partial response
- tumor decrease ([11]; c-kit-negative GIST, ETV6-NTRK3 fusion, 2 cycles+): 30%
- tumor decrease ([11]; mammary analogue secretory carcinoma, ETV6-NTRK3 fusion, 2 cycles+): 64%
- tumor decrease ([11]; undifferentiated sarcoma, LMNA-NTRK1 fusion, 7 cycles+): 59%
- tumor growth (change in volume) [12]: effectively halt the growth, or decrease the rate of growth
- tumor growth (change in volume) [13]: effectively halt the growth, or decrease the rate of growth
- tumor growth (change in volume) [14]: effectively halt the growth, or decrease the rate of growth
- change in form during DVS (post-DVS XRPD) [15]: no change
- hygroscopicity ([15]; DVS isotherm, FIG. 5): non-hygroscopic
- DVS (outcome) ([15]; HCl: at 50-60% RH): RH No change
- DVS weight gain ([15]; at 80% RH): ~1% gain at 80%
- DVS weight gain ([15]; at 95% RH): A 2% gain at 95%
- increase in mass during sorption cycle ([15]; between 0% and 90% RH): about 1.7%
- Stability at 40° Celsius/75% RH (aluminum slide) [16]: No form change
- hygroscopicity [17]: non-hygroscopic
- hygroscopicity ([17]; listed as Crystalline form (I-HS)): not hygroscopic
- mass gained in DVS ([17]; at 80% RH): 1%
- Appearance ([18]; 40° C./75% RH, 5 wks): Orange Powder
- Assay (HPLC) ([18]; 40° C./75% RH, 5 wks): 79.6%
- Chiral Potency (HPLC) ([18]; 40° C./75% RH, 5 wks): 99.6%
- KF (water content) ([18]; 40° C./75% RH, 5 wks): 0.21 w/w %
- Peak Area Percent, RRT 0.793 ([18]; 40° C./75% RH, 5 wks): 0.07
- Peak Area Percent, RRT 0.863 ([18]; 40° C./75% RH, 5 wks): 0.00
- Peak Area Percent, RRT 0.981 ([18]; 40° C./75% RH, 5 wks): 0.00
- Peak Area Percent, RRT 1.000 ([18]; 40° C./75% RH, 5 wks): 99.93
- Peak Area Percent, RRT 1.535 ([18]; 40° C./75% RH, 5 wks): 0.00
- Total Impurities (HPLC) ([18]; 40° C./75% RH, 5 wks): 0.07%
- change of API chemical purity ([18]; 40° C./75% RH, five weeks): did not change significantly
- Appearance ([18]; time point 0 wks): Orange Powder
- Assay (HPLC) ([18]; time point 0 wks): 79.4%
- Chiral Potency (HPLC) ([18]; time point 0 wks): 99.6%
- KF (water content) ([18]; time point 0 wks): 0.28 w/w %
- Peak Area Percent, RRT 0.793 ([18]; time point 0 wks): 0.07
- Peak Area Percent, RRT 0.863 ([18]; time point 0 wks): 0.00
- Peak Area Percent, RRT 0.981 ([18]; time point 0 wks): 0.00
- Peak Area Percent, RRT 1.000 ([18]; time point 0 wks): 99.86
- Peak Area Percent, RRT 1.535 ([18]; time point 0 wks): 0.07
- Total Impurities (HPLC) ([18]; time point 0 wks): 0.14%
- inhibition of cellular proliferation [19]: did not inhibit
- Grade 1 and 2 anemia, frequency ([20]; 23 patients): 22%
- Grade 1 and 2 dizziness, frequency ([20]; 23 patients): 26%
- Grade 1 and 2 fatigue, frequency ([20]; 23 patients): 35%
- MTD [20, 21]: has not been reached
- tolerability [20, 21]: well tolerated
- dose limiting toxicity ([20]; Dose Level 100 mg BID): delirium, grade 3 unrelated
- dose limiting toxicity ([20]; Dose Level 150 mg BID): elevated AST, grade 3
- adverse events attributed to drug ([20]; sarcoma patient, after four months of dosing): did not have any adverse events
- drug-related adverse events ([20]; sarcoma patient, first 4-week period): No drug-related adverse events were noted

Reference: patent publication US10799505B2, “Crystalline form of (S)-N-(5-((R)-2-(2,5-difluorophenyl)-pyrrolidin-1-yl)-pyrazolo[1,5-A]pyrimidin-3-yl)-3-hydroxypyrrolidine-1-carboxamide hydrogen sulfate” (Array BioPharma, Inc., priority 2014, dated 2020)
